Test results taken from ChEMBL document CHEMBL4699624, “Targeting Trimeric and Tetrameric Proanthocyanidins of Cinnamomum verum Bark as Bioactives for Dental Therapies” (J Nat Prod, 2020).
Calls of active or inactive are those of the source. No cut-off for these calls is given here.

Columns and labels:
[1] = tested on: Hathewaya histolytica; test: Inhibition of Clostridium histolyticum collagenase-induced degradation of human molar dentin assessed as reduction in degradation after 24 hrs
[2] = tested on: Dentine; test: Induction of apparent modulus of elasticity in human molar dentine after 1 hr by bending method; type: functional, tissue-based

inhibition [1] | Compound | Activity [2]
Active | Oc1cc(O)c2c(c1)O[C@H](c1ccc(O)c(O)c1)[C@H](O)[C@H]2c1c(O)c2c(c3c1O[C@]1(c4ccc(O)c(O)c4)Oc4cc(O)cc(O)c4[C@H]3[C@H]1O)O[C@H](c1ccc(O)c(O)c1)[C@H](O)[C@H]2c1c(O)cc(O)c2c1O[C@H](c1ccc(O)c(O)c1)[C@H](O)C2 | Active
Active | Oc1cc(O)c2c(c1)O[C@@]1(c3ccc(O)c(O)c3)Oc3cc(O)c4c(c3[C@@H]2[C@H]1O)O[C@H](c1ccc(O)c(O)c1)[C@H](O)[C@H]4c1c(O)cc2c(c1O)[C@@H]1c3c(cc(O)c4c3O[C@H](c3ccc(O)c(O)c3)[C@@H](O)C4)O[C@](c3ccc(O)c(O)c3)(O2)[C@@H]1O | Active
Active | Oc1cc(O)c2c(c1)O[C@@]1(c3ccc(O)c(O)c3)Oc3cc(O)c4c(c3[C@@H]2[C@H]1O)O[C@H](c1ccc(O)c(O)c1)[C@H](O)[C@H]4c1c(O)cc(O)c2c1O[C@H](c1ccc(O)c(O)c1)[C@H](O)C2 | Active
